This note sets out measurements from ChEMBL document CHEMBL1148902, “A cytotoxic cyclic heptapeptide from the seeds of Annona cherimola” (J Nat Prod, 2004).

The test system of this experiment is KB. Description: Cytotoxicity against human KB cells. In kind it is functional, cell-based.

Broadly, the pIC50 is the IC50 on a negative log10 scale, so that one unit is a factor of ten. Low readings indicate a high IC50, high ones a low IC50.

pIC50: −log10 of the molar value. Where a SMILES comes first, the peptide text is derived from it.

Turning to `CC[C@H](C)[C@@H]1NC(=O)[C@H](Cc2c[nH]c3ccccc23)NC(=O)[C@H](C)NC(=O)[C@H](C)NC(=O)CNC(=O)[C@@H]2CCCN2C(=O)[C@@H]2CCCN2C1=O` [CHERIMOLACYCLOPEPTIDE C] (cyclo(AAWIPPG)), the pIC50 is 7.14.

`COc1cccc2c1C(=O)c1c(O)c3c(c(O)c1C2=O)C[C@@](O)(C(=O)CO)C[C@@H]3O[C@H]1C[C@H](N)[C@H](O)[C@H](C)O1` [DOXORUBICIN] showed a pIC50 of 7.70.
